Values quoted from earlier work in patent US20230349886A1, “SYSTEMS AND METHODS FOR PREDICTING CARDIOTOXICITY OF MOLECULAR PARAMETERS OF A COMPOUND BASED ON MACHINE LEARNING ALGORITHMS” (UTI Limited Partnership, priority 2015, published 2023).
Read-outs that look alike come from different tables or passages of the source.

What was measured:
hERG = hERG (Homo sapiens, UniProt Q12809); conditions: for HERG-maxinhib: maximal inhibition
[1] = Brown dataset; flag given as 1 or 0
Cav1.2 = Cav1.2 (Homo sapiens, UniProt Q13936); conditions: for CAV1p2-maxinhib: maximal inhibition
Nav1.5 [2] = target: Nav1.5 (Homo sapiens, UniProt Q14524)
[3] = for Free drug: experimental data file, Kramer et al. 2013
Nav1.5 [4] = target: Nav1.5 (Homo sapiens, UniProt Q14524, S234P/V215L)
[5] = Table 11, calculated from HERG-IC50 of the Kramer et al. 2013 data
[6] = read-out: HERG IC50, Brown dataset
[7] = read-out: CAV1.2 IC50, Brown dataset
[8] = read-out: NAV1.5 IC50, Brown dataset
[9] = Brown dataset, negative log of free drug concentration
[10] = experimental data, Kramer et al. 2013
[11] = read-out: HERG-IC50, experimental data, Kramer et al. 2013
[12] = read-out: CAV1p2-IC50, experimental data, Kramer et al. 2013
[13] = maximal inhibition, Kramer et al. 2013
[14] = read-out: NAV1p5-IC50, experimental data, Kramer et al. 2013

hERG, sequence (Q12809 whole entry): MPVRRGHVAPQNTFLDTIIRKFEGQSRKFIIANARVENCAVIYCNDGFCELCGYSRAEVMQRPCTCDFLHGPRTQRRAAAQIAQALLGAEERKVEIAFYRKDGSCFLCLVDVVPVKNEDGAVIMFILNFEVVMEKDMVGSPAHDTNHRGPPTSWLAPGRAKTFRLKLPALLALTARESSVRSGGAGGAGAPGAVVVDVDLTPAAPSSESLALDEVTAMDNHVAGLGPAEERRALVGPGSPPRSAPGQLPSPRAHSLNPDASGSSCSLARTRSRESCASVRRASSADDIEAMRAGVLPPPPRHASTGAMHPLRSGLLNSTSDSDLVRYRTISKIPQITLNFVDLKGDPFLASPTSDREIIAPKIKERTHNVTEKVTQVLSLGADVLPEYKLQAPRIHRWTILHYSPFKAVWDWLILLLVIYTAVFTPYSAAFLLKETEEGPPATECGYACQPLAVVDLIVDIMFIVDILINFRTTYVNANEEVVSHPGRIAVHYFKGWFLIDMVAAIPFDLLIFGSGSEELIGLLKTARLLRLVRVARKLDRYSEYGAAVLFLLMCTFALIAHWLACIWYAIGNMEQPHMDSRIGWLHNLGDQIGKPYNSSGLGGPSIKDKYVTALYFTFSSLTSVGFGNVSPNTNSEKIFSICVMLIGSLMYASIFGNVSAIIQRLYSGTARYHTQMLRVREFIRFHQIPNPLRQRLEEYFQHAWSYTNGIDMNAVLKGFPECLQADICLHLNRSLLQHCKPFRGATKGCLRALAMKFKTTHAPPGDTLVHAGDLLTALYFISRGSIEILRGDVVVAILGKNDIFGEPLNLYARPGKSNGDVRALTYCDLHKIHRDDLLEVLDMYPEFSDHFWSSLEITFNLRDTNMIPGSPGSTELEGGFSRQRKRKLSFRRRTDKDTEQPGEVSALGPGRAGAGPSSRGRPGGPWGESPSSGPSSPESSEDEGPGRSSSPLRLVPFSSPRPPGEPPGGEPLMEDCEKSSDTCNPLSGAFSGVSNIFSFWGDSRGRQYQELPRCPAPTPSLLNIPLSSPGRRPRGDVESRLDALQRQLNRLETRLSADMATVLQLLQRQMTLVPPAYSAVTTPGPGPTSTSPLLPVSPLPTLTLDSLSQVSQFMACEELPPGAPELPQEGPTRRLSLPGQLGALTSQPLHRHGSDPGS
Cav1.2, sequence (Q13936 1-2138 isoform Q13936-12): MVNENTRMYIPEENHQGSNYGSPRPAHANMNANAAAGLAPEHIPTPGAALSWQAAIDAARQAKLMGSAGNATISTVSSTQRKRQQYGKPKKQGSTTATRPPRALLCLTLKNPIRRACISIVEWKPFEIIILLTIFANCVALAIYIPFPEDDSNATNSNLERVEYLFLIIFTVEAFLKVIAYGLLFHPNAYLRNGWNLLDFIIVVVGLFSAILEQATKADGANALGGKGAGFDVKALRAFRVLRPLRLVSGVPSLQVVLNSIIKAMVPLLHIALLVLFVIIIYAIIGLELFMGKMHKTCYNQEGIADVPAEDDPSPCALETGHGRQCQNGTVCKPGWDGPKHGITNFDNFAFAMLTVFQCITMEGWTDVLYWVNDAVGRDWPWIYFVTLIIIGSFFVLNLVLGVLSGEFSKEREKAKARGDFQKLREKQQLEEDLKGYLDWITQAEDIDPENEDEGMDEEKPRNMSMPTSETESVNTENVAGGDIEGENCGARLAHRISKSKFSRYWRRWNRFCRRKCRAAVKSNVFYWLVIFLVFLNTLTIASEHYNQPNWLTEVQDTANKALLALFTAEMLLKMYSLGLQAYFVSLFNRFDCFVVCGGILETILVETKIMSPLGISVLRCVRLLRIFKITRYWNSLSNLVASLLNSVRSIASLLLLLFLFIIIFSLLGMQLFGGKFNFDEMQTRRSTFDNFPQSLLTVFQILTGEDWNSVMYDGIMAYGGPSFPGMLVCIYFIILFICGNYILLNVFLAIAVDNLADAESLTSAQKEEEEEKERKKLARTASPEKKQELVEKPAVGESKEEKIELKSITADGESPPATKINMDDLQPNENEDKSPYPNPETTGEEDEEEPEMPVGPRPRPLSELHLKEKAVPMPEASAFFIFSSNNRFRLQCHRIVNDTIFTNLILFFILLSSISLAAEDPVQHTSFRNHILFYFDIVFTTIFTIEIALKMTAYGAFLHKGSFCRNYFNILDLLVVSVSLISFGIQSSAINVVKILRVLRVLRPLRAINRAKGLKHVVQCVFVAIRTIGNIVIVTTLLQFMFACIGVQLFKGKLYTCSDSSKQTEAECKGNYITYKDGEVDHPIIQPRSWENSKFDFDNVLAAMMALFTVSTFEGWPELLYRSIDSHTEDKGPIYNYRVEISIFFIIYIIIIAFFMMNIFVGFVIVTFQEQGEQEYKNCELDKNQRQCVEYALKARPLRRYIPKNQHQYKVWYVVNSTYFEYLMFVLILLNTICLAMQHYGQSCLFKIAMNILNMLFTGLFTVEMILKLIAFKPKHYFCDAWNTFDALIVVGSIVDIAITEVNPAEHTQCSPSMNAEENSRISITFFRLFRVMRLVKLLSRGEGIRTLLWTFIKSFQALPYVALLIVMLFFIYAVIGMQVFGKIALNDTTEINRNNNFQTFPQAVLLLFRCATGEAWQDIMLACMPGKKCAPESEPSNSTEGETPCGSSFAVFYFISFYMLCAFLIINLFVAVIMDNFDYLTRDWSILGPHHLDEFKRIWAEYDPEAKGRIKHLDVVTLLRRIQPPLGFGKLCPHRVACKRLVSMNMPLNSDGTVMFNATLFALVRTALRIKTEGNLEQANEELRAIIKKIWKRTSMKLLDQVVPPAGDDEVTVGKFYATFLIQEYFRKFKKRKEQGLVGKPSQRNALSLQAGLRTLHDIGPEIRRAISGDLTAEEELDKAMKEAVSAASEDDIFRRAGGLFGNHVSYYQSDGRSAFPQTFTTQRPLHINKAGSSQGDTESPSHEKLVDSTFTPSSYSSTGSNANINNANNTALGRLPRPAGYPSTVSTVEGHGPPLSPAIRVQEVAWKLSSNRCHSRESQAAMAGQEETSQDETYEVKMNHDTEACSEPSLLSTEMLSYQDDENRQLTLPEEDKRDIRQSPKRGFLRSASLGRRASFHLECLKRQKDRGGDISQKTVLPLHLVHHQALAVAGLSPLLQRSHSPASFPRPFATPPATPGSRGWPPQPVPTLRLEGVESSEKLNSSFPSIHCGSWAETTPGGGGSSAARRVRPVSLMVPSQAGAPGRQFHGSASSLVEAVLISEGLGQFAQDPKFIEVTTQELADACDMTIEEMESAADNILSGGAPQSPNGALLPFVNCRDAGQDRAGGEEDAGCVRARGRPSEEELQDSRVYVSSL
Cav1.2, sequence (Q08289 whole entry partner): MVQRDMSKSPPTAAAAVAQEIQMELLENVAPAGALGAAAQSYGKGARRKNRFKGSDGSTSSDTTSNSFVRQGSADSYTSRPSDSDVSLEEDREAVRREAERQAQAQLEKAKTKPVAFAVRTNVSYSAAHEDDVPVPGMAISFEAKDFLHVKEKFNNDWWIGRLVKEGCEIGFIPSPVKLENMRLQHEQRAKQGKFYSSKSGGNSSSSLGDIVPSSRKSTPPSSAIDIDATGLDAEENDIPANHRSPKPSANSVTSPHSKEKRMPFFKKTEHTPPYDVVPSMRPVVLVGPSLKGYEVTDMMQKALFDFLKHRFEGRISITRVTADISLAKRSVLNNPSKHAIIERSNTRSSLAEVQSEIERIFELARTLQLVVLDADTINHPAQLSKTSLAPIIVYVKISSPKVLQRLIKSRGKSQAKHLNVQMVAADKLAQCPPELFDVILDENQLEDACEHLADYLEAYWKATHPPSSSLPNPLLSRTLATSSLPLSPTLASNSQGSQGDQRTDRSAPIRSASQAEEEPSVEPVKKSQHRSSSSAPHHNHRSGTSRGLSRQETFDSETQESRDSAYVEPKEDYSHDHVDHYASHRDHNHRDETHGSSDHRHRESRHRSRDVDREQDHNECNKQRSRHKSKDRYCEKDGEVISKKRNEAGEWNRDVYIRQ
Cav1.2, sequence (P54289 25-946 partner limits assumed): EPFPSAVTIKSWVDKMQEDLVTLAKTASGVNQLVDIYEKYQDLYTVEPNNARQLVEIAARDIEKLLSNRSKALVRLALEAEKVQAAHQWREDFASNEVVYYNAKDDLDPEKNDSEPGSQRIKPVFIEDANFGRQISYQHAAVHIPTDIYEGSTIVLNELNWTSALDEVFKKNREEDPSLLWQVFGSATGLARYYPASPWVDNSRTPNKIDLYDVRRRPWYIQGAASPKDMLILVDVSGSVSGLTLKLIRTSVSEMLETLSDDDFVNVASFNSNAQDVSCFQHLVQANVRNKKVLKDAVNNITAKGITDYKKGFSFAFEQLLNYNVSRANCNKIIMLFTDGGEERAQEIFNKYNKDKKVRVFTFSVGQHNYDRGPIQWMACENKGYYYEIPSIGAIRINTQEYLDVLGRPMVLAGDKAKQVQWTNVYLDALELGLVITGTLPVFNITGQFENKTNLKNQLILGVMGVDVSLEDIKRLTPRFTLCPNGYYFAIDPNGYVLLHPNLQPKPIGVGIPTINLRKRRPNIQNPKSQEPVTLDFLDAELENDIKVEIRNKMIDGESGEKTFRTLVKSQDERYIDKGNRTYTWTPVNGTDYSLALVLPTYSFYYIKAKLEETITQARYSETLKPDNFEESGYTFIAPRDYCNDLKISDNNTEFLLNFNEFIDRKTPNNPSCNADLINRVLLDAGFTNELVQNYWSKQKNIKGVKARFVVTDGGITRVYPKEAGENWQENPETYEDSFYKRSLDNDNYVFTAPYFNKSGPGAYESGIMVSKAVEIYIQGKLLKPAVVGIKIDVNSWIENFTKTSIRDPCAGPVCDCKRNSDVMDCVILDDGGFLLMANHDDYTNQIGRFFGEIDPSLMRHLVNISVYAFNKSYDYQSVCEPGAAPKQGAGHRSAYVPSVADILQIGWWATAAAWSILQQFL
Cav1.2, sequence (P54289 947-1103 partner limits assumed): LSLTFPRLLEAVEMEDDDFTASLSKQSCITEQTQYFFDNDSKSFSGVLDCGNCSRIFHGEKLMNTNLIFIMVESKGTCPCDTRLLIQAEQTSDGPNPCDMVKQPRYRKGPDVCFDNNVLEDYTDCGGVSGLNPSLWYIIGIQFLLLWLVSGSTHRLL

Row | Compound | HERG maxInhib (hERG; Brown dataset) | pIC50 (hERG; [5]) | IC50 (hERG; [6]) [µM] | Ris (TdP risk flag) [1] | CAV1.2 max inhib (Cav1.2; Brown dataset) | IC50 (Cav1.2; [7]) [µM] | NAV1.5 max inhib (Nav1.5 [2]; Brown dataset) | IC50 (Nav1.5 [2]; [8]) [µM] | further results
1 | NC(=O)c1ncn([C@@H]2O[C@H](CO)[C@@H](O)[C@H]2O)n1 [ribavirin] | 21.4 | 3.015 | 967 | 0 | 31.9 | 622 | 6.9 | 3000 | 
2 | Cc1nc(Nc2ncc(C(=O)Nc3c(C)cccc3Cl)s2)cc(N2CCN(CCO)CC2)n1 [dasatinib] | 86.6 |  |  | 0 | 52.2 |  | 58.9 |  | pFD [3, 9]: 1.387 ^-1614
3 | CCCC(C)C1(CC)C(=O)NC(=O)NC1=O (stereo not shown) [pentobarbital] |  |  |  | 0 | 82.1 | 299 | 9 | 2690 | HERG maxInhib (hERG): 39.5; HERG pIC50 (hERG): 2.843 135; IC50 (hERG): 1430 µM; pIC50 (hERG): 2.843
4 | O=C(CCCN1CC=C(n2c(=O)[nH]c3ccccc32)CC1)c1ccc(F)cc1 [droperidol] |  |  |  | 1 | 83.4 | 7.6 | 59 | 22.7 | 
5 | CO/N=C(\C(=O)N[C@@H]1C(=O)N2C(C(=O)O)=C(CSc3nc(=O)c(=O)[nH]n3C)CS[C@H]12)c1csc(N)n1 [ceftriaxone] | 7.5 | 3.351 | 445 | 0 | 38.8 | 154 | 14.3 | 555 | Free drug [3]: 23.17 µM; pFD ([3]; negative log of free drug): 4.635; HERG-pIC50 (hERG; [10]): 3.351; HERG-maxinhib (hERG; Kramer et al. 2013): 7.5; IC50 (hERG; [11]): 446 µM; CAV1p2-pIC50 (Cav1.2; [10]): 3.813; CAV1p2-maxinhib (Cav1.2; Kramer et al. 2013): 38.8; IC50 (Cav1.2; [12]): 154 µM; NAV1p5-pIC50 (Nav1.5 [2]; [10]): 3.255; NAV1p5-maxinhib (Nav1.5 [2]; [13]): 14.3; IC50 (Nav1.5 [2]; [14]): 556 µM
6 | N[C@@H](CC(=O)N1CCn2c(nnc2C(F)(F)F)C1)Cc1cc(F)c(F)cc1F [sitagliptin] | 35.6 |  |  | 0 | 35.8 | 147 | 18.3 | 1220 | 
7 | C[C@@H]1CN(c2c(F)c(N)c3c(=O)c(C(=O)O)cn(C4CC4)c3c2F)C[C@H](C)N1 [sparfloxacin] |  |  |  | 1 | 50.3 | 88.8 | 0.8 | 2560 | HERG maxInhib (hERG): 81.5; HERG pIC50 (hERG): 4.656 726; IC50 (hERG): 22.1 µM; pIC50 (hERG): 4.656
8 | O=c1[nH]c2ccccc2n1C1CCN(CCCC(c2ccc(F)cc2)c2ccc(F)cc2)CC1 [pimozide] |  |  |  | 1 | 88.1 |  |  |  | HERG maxInhib (hERG): 91.3
9 | chlorpromazine |  | 5.824 |  |  |  |  |  |  | Free drug [3]: 0.038 µM; pFD ([3]; negative log of free drug): 7.42; HERG-pIC50 (hERG; [10]): 5.824; HERG-maxinhib (hERG; Kramer et al. 2013): 96.7; IC50 (hERG; [11]): 1.5 µM; CAV1p2-pIC50 (Cav1.2; [10]): 5.469; CAV1p2-maxinhib (Cav1.2; Kramer et al. 2013): 99.2; IC50 (Cav1.2; [12]): 3.4 µM; NAV1p5-pIC50 (Nav1.5 [2]; [10]): 5.523; NAV1p5-maxinhib (Nav1.5 [2]; [13]): 97.1; IC50 (Nav1.5 [2]; [14]): 3 µM
10 | Fc1ccc([C@@H]2CCNC[C@H]2COc2ccc3c(c2)OCO3)cc1 [paroxetine] | 99.5 |  |  | 1 |  |  |  |  | CAV1.2 max inhib (Cav1.2): 98.5; CAV1.2 pIC50 (Cav1.2): 5.409 393; IC50 (Cav1.2): 3.9 µM; IC50 (Nav1.5 [2]): 9.8 µM; NAV1.5 max inhib (Nav1.5 [2]): 93.7; NAV1.5 pIC50 (Nav1.5 [4]): 5.009 924
11 | CCC(=O)C(CC(C)N(C)C)(c1ccccc1)c1ccccc1 (stereo not shown) [methadone] | 91.6 | 5.456 | 3.5 | 1 | 96.9 |  | 100 | 31.8 | 
12 | CN(C)CCCN1c2ccccc2Sc2ccc(Cl)cc21 [chlorprom ne] | 96.7 |  | 1.5 | 1 |  |  |  |  | 
13 | CC(C)COCC(CN(Cc1ccccc1)c1ccccc1)N1CCCC1 (stereo not shown) [bepridil] |  |  |  | 1 | 95.7 |  |  |  | Free drug [3]: 0.035 µM; pFD ([3]; negative log of free drug): 7.456; CAV1p2-maxinhib (Cav1.2; Kramer et al. 2013): 95.7; IC50 (Nav1.5 [2]): 2.3 µM; NAV1p5-maxinhib (Nav1.5 [2]): 100; NAV1p5-pIC50 (Nav1.5 [2]): 5.638; NAV1.5 max inhib (Nav1.5 [2]): 100; NAV1.5 pIC50 (Nav1.5 [4]): 5.6382 164
14 | CCCCCCCN(CC)CCCC(O)c1ccc(NS(C)(=O)=O)cc1 (stereo not shown) [ibutilide] |  |  |  | 1 | 85.2 | 62.5 | 87.9 | 42.5 | Free drug concentration ([3]; Brown dataset): 140 nM; pFD [3, 9]: 6.853; CAV1.2 pIC50 (Cav1.2; Brown dataset): 4.2041; NAV1.5 pIC50 (Nav1.5 [4]; Brown dataset): 4.3716
15 | cilostazol | 65.9 | 4.86 | 13.8 | 1 | 24.6 | 91.2 | 22.9 | 93.7 | 
16 | COc1ccc(CCN2CCC(Nc3nc4ccccc4n3Cc3ccc(F)cc3)CC2)cc1 [astemizole] |  |  |  | 1 |  |  |  |  | Free drug [3]: 0.0003 µM; pFD ([3]; negative log of free drug): 9.523
